One assay concerns A549. Put plainly: Cell assay (Alamar Blue, 72 hours) A549. Conditions: Homo sapiens. The format is cell-based. The method, then: Cells are maintained, then typsinized and suspended in Dulbecco's modified Eagle's medium (DMEM_containing 10% fetal bovine serum (FBS), 25 mM 4-(2-hydroxyethyl)-1-piperazineethanesulfonic acid (HEPES), 1.0 mM Sodium Pyruvate and 0.1 mM Non Essential Amino Acids (NEAA). 1×10^3 HCT116 and 2×10^3 Cells may be seeded in 50 μL in 96 well plates and incubated in 5% CO2 at 37° C. overnight. Compounds are prepared at desired starting concentrations and serial diluted in DMSO. 4 μL of diluted compounds are transferred in 1 mL 10% FBS DMEM to make up 2× concentrations as added 50 μL to the 50 μL in the presence of cells for dosing. The plates are incubated at 37° C. in 5% CO2 for 72 hours. At the end of incubation period, 10 μL Alamar Blue is added and after 2 hours reaction the measurement is determined in CytoFluor at 530 nm excitation, 580 nm emission and Gain 45. The following compounds were tested in the following cell lines essentially as described above.

In a further assay the target is T1, P70 S6 kinase (T412E) (Homo sapiens, UniProt P23443, T412E).
T1 construct: purchased Upstate USA, Inc. (Charlottesville, Va.)
T1 sequence (P23443 whole entry T412E): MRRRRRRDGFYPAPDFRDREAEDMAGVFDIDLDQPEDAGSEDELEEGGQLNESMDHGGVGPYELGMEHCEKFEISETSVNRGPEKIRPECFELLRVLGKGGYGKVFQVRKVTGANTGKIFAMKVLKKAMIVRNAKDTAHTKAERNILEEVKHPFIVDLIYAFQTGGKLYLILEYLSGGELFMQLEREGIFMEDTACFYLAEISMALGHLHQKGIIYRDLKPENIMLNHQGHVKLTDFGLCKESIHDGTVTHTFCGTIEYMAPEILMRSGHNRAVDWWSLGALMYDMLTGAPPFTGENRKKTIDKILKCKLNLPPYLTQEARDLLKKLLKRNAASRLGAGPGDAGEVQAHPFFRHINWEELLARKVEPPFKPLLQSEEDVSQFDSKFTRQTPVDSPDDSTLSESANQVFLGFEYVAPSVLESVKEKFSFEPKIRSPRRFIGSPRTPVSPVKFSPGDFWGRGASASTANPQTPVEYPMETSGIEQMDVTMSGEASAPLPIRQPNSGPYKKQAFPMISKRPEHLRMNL
Put plainly: Inhibition of p70S6 Kinase. The format is biochemical. Particulars: 25 μM ATP, 5 nM enzyme, relative IC50. The method, then: P70 S6 kinase (T412E) from Upstate USA, Inc. (Charlottesville, Va.) is preincubated with 10 concentrations of compound in a 15 μL volume for 30 min at room temperature in 96-well plates. PKA, PKC, MAPKAP-K1 Substrate from AnaSpec (San Jose, Calif.) and gamma ^33P-ATP from PerkinElmer (Waltham, Mass.) is added to initiate the reaction which is allowed to proceed for 60 minutes at room temperature in a final 25 μL volume under the following conditions: 10 mM HEPES pH 7.5, 10 mM MgCl2, 1.0 mM DTT, 0.082 mM EGTA, 0.005% TRITON X-100™, 25 μM, 25 μM ATP, 40 μCi/mL, 4 μM substrate, and 5 nM enzyme. Reactions are terminated with 75 μL 10% H3PO4 and 85 μL of quenched reaction mix is transferred to a phosphocellulose filter plate (Millipore #MAPHN0B50) and washed with 0.5% H3PO4 using a vacuum manifold. 100 μL of Microscint 20 (Packard #60113621) is added to each well and plates with liner are counted using a Wallac Beta Counter. Relative IC50 values are calculated by non-linear four parameter fitting.

pIC50: −log10 of the molar value.

As to `Cl.FC(F)(F)c1cccc(-c2c[nH]c(C3CCN(c4ncnc5[nH]ncc45)CC3)n2)c1` [Example 5, 4-{4-[4-(3-(Trifluoromethyl)-phenyl)-1H-imidazol-2-yl]-piperidin-1-yl}-1H-pyrazolo[3,4-d]pyrimidine hydrochloride], the pIC50 was 4.66 in the assay with A549 and 7.53 against P70 S6 kinase (T412E).

These data come from patent US8093383B2, “P70 S6 kinase inhibitors” (Eli Lilly and Company, priority 2007, dated 2012).
